Experimental findings from BindingDB's records for PubMed 9686407 (Sri International, 1998) are described below.

In one test the target is D(1A) dopamine receptor (Homo sapiens, UniProt P21728).
The target of test [1] is T1, 5-hydroxytryptamine receptor 2C (Rattus norvegicus, UniProt P08909).
T1 sequence (P08909 whole entry): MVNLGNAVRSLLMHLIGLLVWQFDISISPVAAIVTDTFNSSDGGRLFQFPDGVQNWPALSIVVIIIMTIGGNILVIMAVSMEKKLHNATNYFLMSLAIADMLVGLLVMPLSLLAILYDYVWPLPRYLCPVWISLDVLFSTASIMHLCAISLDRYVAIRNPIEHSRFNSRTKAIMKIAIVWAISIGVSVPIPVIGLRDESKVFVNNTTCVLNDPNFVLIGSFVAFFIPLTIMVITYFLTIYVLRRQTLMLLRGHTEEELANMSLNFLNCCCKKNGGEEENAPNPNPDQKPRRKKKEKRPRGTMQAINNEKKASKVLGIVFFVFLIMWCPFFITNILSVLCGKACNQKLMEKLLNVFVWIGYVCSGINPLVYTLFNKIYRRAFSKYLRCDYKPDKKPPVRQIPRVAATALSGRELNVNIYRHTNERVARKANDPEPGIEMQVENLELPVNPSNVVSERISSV

Test [2] has as its target T2, 5-hydroxytryptamine receptor 3A (Mus musculus, UniProt P23979).
T2 sequence (P23979 whole entry): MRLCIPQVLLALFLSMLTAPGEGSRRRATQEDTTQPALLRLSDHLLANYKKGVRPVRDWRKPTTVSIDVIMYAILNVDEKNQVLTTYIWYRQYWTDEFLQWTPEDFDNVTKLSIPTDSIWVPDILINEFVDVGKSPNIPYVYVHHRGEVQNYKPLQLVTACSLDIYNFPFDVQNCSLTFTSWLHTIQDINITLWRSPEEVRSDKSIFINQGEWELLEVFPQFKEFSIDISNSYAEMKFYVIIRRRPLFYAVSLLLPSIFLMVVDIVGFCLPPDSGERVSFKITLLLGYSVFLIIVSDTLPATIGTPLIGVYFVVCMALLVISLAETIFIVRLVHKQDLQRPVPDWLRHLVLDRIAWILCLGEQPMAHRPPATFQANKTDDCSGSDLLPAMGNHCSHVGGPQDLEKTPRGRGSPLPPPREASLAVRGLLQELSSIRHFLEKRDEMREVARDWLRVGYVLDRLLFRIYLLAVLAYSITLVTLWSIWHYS

In test [3] the target is 5-hydroxytryptamine receptor 2A (Rattus norvegicus, UniProt P14842).
Chain of 5-hydroxytryptamine receptor 2A (P14842 whole entry): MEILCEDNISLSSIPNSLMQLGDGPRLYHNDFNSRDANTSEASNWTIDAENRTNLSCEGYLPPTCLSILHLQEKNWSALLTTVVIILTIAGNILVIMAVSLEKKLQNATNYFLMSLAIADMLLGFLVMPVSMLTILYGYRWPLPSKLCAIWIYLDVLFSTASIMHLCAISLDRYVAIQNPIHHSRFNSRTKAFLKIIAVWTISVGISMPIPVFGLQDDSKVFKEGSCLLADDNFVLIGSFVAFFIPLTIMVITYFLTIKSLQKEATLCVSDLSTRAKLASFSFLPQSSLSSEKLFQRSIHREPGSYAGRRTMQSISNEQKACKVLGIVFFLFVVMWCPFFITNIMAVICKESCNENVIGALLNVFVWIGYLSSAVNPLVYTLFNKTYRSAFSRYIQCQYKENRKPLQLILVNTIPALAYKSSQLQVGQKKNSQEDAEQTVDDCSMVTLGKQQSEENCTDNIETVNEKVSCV
The target of test [4] is T3, 5-hydroxytryptamine receptor 1A (Homo sapiens, UniProt P08908).
T3 sequence (P08908 whole entry): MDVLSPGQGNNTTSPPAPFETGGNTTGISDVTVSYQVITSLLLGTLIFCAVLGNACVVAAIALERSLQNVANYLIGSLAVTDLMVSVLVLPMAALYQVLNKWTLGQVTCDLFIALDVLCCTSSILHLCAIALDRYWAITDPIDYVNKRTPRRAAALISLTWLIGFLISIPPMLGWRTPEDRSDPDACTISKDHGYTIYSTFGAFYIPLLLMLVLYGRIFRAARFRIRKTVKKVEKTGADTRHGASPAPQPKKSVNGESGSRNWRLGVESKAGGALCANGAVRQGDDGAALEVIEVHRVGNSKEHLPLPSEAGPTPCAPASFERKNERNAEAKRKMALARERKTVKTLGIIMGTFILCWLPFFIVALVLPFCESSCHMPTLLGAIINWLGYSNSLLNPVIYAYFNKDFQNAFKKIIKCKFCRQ

A further test deals with Mu-type opioid receptor (Cavia porcellus, UniProt P97266).
Chain of Mu-type opioid receptor (P97266 whole entry): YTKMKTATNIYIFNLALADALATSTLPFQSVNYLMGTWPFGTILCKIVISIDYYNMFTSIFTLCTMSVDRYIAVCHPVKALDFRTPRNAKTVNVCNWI
The target of test [5] is Kappa-type opioid receptor (Cavia porcellus, UniProt P41144).
Chain of Kappa-type opioid receptor (P41144 whole entry): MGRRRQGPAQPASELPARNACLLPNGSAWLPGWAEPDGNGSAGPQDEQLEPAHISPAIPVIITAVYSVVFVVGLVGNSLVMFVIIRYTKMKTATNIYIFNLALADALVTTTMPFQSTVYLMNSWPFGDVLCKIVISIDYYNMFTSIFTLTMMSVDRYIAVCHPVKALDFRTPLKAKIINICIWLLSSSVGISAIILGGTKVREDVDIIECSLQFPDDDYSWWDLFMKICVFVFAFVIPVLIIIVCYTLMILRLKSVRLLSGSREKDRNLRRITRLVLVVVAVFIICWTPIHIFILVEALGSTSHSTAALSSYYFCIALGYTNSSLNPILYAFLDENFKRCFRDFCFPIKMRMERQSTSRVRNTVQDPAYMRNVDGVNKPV

Bounds are passed on as bounds.

Chain of D(1A) dopamine receptor (P21728 whole entry): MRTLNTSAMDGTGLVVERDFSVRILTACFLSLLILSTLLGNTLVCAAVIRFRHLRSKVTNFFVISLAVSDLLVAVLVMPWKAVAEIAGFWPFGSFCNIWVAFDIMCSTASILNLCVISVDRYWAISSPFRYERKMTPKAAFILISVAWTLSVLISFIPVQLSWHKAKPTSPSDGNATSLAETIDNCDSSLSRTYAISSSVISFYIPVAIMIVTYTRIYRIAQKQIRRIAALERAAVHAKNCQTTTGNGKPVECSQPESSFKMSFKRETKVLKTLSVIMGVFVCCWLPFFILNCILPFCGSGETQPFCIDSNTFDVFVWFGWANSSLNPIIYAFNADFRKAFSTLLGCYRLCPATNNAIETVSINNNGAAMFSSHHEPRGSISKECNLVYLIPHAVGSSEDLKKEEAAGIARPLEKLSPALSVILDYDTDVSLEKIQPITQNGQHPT

What is called Ki is the equilibrium dissociation constant of an inhibitor or competing ligand from its target. Lower therefore signals tighter binding. Turning to `CN1C2CCC1CC(OC(=O)c1c[nH]c3ccccc13)C2` (stereo not given), the inhibition constant (Ki) at D(1A) dopamine receptor is > 10 µM; in test [1], > 10 µM; in test [2] it was 0.0005 µM; in test [3], 5.61 µM; in test [4], > 10 µM.

`CCC12CCN(CC3(O)CC3)C(Cc3ccc(O)cc31)C2(C)C` (stereo not given) showed an inhibition constant Ki on Mu-type opioid receptor of 0.1 nM.

Consider `c1ccc2c(c1)OCC(C1=NCCN1)O2` (stereo not given), for which the Ki is > 10 µM on D(1A) dopamine receptor; > 10 µM in test [1]; > 10 µM in test [2]; > 10 µM in test [3]; 0.662 µM in test [4].

On to `COC(=O)[C@@H](c1ccccc1)[C@@H]1CCCCN1`, for which the inhibition constant (Ki) (at D(1A) dopamine receptor; in test [1]; in test [2]; in test [3]; in test [4]) was > 10 µM in each case.

In turn, `CC[C@H](C)[C@H](NC(=O)[C@H](CCCN=C(N)N)NC(=O)[C@H](CCCN=C(N)N)NC(=O)[C@H](CC(C)C)NC(=O)[C@H](Cc1ccccc1)NC(=O)CNC(=O)CNC(=O)[C@@H](N)Cc1ccc(O)cc1)C(=O)O` returned a Ki in test [5] of 1.4 nM.

In the case of `C=CCN1CCC23c4c5ccc(O)c4O[C@@H]2C(=NNC(=O)c2ccccc2)CCC3(O)C1C5` (stereo not given in full), the figures for the Ki (at Mu-type opioid receptor; in test [5]) were 0.2 nM and 0.4 nM, respectively.

In the case of `CCc1cc(Cl)c(OC)c(C(=O)NC[C@@H]2CCCN2CC)c1O` [3-Chloro-5-ethyl-N-((S)-1-ethyl-pyrrolidin-2-ylmethyl)-6-hydroxy-2-methoxy-benzamide], the inhibitory constant (Ki) is > 10 µM on D(1A) dopamine receptor; > 10 µM in test [1]; > 10 µM in test [2]; 0.705 µM in test [3]; 1.79 µM in test [4].

Turning to `NC(=O)N1c2ccccc2C=Cc2ccccc21` [5H-dibenzo[b,f]azepine-5-carboxamide], the inhibitory constant (Ki) (on D(1A) dopamine receptor; in test [1]; in test [2]; in test [3]; in test [4]) was > 10 µM throughout.

For the compound `CN1CC(C(=O)N[C@]2(C)O[C@@]3(O)C4CCCN4C(=O)[C@H](Cc4ccccc4)N3C2=O)CC2c3cccc4[nH]cc(c34)CC21` (stereo partly drawn) [7-Methyl-4,6,6a,7,8,9,10,10a-octahydro-indolo[4,3-fg]quinoline-9-carboxylic acid ((2R,5S,10bS)-5-benzyl-10b-hydroxy-2-methyl-3,6-dioxo-octahydro-oxazolo[3,2-a]pyrrolo[2,1-c]pyrazin-2-yl)-amide], the Ki is 2.78 µM on D(1A) dopamine receptor; 0.298 µM in test [1]; > 10 µM in test [2]; 0.038 µM in test [3]; 0.0015 µM in test [4].

`C[C@@H]1[C@@H]2Cc3ccc(O)cc3[C@@]1(C)CCN2CC1CC1` [(SSS)-12-Cyclopropylmethyl-13-methyl-12-aza-tricyclo[9.1.1.0*3,8*]trideca-3(8),4,6-trien-6-ol(cyclazocine)]: the Ki in test [5] was found to be 0.1 nM. This lies in the sub-nanomolar range.

For the compound `COC(=O)[C@H]1[C@H]2C[C@@H]3c4[nH]c5cc(OC)ccc5c4CCN3C[C@H]2C[C@@H](OC(=O)c2cc(OC)c(OC)c(OC)c2)[C@@H]1OC` [Apoplon], the Ki at D(1A) dopamine receptor was 3.85 µM; in test [1], 3.1 µM; in test [2], > 10 µM; in test [3], 3.06 µM; in test [4], 1.83 µM.

Regarding `CC(C)C[C@H]1C(=O)N2CCC[C@H]2[C@]2(O)O[C@](NC(=O)[C@@H]3C=C4c5cccc6[nH]c(Br)c(c56)C[C@H]4N(C)C3)(C(C)C)C(=O)N12` [Bromocriptine+ (GTP+)], the inhibition constant Ki on D(1A) dopamine receptor is 2.07 µM; in test [1], 4.67 µM; in test [2], > 10 µM; in test [3] it was 0.117 µM; in test [4], 0.025 µM.

For `Oc1ccc2c3c1O[C@H]1c4[nH]c5c(c4C[C@@]4(O)[C@@H](C2)N(CC2CC2)CC[C@]314)C[C@@]1(O)[C@H]2Cc3ccc(O)c4c3[C@@]1(CCN2CC1CC1)[C@H]5O4` [C18130], on Mu-type opioid receptor, the Ki stood at 8.3 nM.

For the compound `CCCN1CCCC(c2cccc(O)c2)C1` (stereo not given) [CAS_85976-54-1], the inhibition constant (Ki) on D(1A) dopamine receptor was > 10 µM; in test [1], > 10 µM; in test [2], > 10 µM; in test [3], 5.99 µM; in test [4], 4.17 µM.

Take `CN1CCN(c2nc3cc(C(F)(F)F)ccc3n3cccc23)CC1` [CAS_109028-10-6]: the Ki at D(1A) dopamine receptor is 1.53 µM; in test [1], 6.6 µM; in test [2] it was > 10 µM; in test [3], 3.13 µM; in test [4], 0.044 µM.

On to `COC(=O)[C@H]1[C@@H](OC(=O)c2ccccc2)C[C@@H]2CC[C@H]1N2C` [Cocaine (-)], for which the Ki (at D(1A) dopamine receptor; in test [1]; in test [2]; in test [3]; in test [4]) was > 10 µM in each case.

On to `CN1CC[C@]23c4c5ccc(O)c4O[C@H]2[C@@H](O)CCC3[C@H]1C5` (stereo not given in full) [DIHYDROMORPHINE], for which, at Mu-type opioid receptor, the affinity, expressed as Ki, was 0.8 nM.

The compound `CC[C@H](C)[C@H](NC(=O)[C@H](CCCNC(=N)N)NC(=O)[C@H](CCCNC(=N)N)NC(=O)[C@H](CC(C)C)NC(=O)[C@H](Cc1ccccc1)NC(=O)CNC(=O)CNC(=O)[C@@H](N)Cc1ccc(O)cc1)C(=O)N[C@@H](CCCNC(=N)N)C(=O)N1CCC[C@H]1C(=O)N[C@@H](CCCCN)C(=O)N[C@@H](CC(C)C)C(=O)N[C@@H](CCCCN)C(=O)O` [Dynorphin A (1-13)] yielded an inhibitory constant (Ki) at Mu-type opioid receptor of 3.3 nM. This Ki is about 4.1-fold higher than that of the compound before.

Regarding `CC(C)C[C@H](NC(=O)[C@H](Cc1ccccc1)NC(=O)CNC(=O)CNC(=O)[C@@H](N)Cc1ccc(O)cc1)C(=O)N[C@@H](CCCN=C(N)N)C(=O)N[C@@H](CCCN=C(N)N)C(=O)N[C@@H](CCC(N)=O)C(=O)N[C@@H](Cc1ccccc1)C(=O)N[C@@H](CCCCN)C(=O)N[C@H](C(=O)N[C@H](C(=O)N[C@H](C(=O)O)[C@@H](C)O)C(C)C)C(C)C` [Dynorphin B (1-13)], affinity at Mu-type opioid receptor was put at a Ki of 5.5 nM.

For the compound `CC[C@@]12CCN(CC3CC3)C(C(=O)c3ccc(O)cc31)[C@@H]2C` [EKC], the inhibition constant Ki on Mu-type opioid receptor came to 0.4 nM.

For the compound `CC[C@@H]1CC2C[C@@H]3c4[nH]c5ccc(OC)cc5c4CCN(C2)C13` [IBOGAINE], the inhibition constant Ki (on D(1A) dopamine receptor; in test [1]; in test [2]; in test [3]; in test [4]) was > 10 µM in each case.

As for `CN1C2CCC1CC(OC(=O)c1cc(Cl)cc(Cl)c1)C2` (stereo not given) [MDL 72222], the Ki at D(1A) dopamine receptor is > 10 µM; in test [1], > 10 µM; in test [2] it was 0.014 µM; in test [3], 2.85 µM; in test [4], > 10 µM.

With `CN[C@@H](C)Cc1ccc2c(c1)OCO2` [MDMA, R(-)], the inhibition constant (Ki) is > 10 µM at D(1A) dopamine receptor, > 10 µM in test [2], 3.91 µM in test [3] and > 10 µM in test [4].

For `CN[C@@H](C)Cc1ccccc1` [METHAMPHETAMINE (+)], the inhibition constant (Ki) (on D(1A) dopamine receptor; in test [1]; in test [2]; in test [3]; in test [4]) was > 10 µM each time.

Take `CC(C)[C@H](NC(=O)[C@H](CCC(=O)O)NC(=O)[C@H](Cc1ccccc1)NC(=O)[C@@H](C)NC(=O)[C@@H](N)Cc1ccc(O)cc1)C(=O)N[C@H](C(=O)NCC(N)=O)C(C)C` [Tyr-D-Ala-Phe-Glu-Val-Val-GlyNH2]: in test [5], the Ki was > 10000 nM.

Take `C#CCN(C)[C@H](C)Cc1ccccc1` [US8633208, Deprenyl]: the Ki is > 10 µM on D(1A) dopamine receptor; > 10 µM in test [1]; > 10 µM in test [2]; 5.64 µM in test [3]; > 10 µM in test [4].

Take `Fc1ccc(C(OCCN2CCN(CCCc3ccccc3)CC2)c2ccc(F)cc2)cc1` [Vanoxerine]: the Ki on D(1A) dopamine receptor was > 10 µM; in test [1], > 10 µM; in test [2] it was > 10 µM; in test [3], 0.161 µM; in test [4], 4.68 µM.
